Results taken from BigSolDB 2.1.

CC(=O)Nc1ccc(OC(=O)c2ccccc2OC(C)=O)cc1
solubility (mole fraction)
Details	278.15 K	283.15 K	288.15 K	293.15 K	298.15 K	303.15 K	308.15 K	313.15 K	318.15 K
in DMF	0.0175	0.0187	0.0201	0.0214	0.0229	0.0244	0.0258	0.0274	0.029
in NMP	0.0222	0.0255	0.0289	0.0326	0.0368	0.041	0.0461	0.0515	0.0571
in ethanol	0.000261	0.00035	0.000454	0.000588	0.000755	0.000947	0.0012	0.00151	0.00191
in isopropanol	0.000141	0.000191	0.000257	0.000346	0.000456	0.000604	0.000781	0.00103	0.00131
in water	5.59e-07	8.56e-07	1.19e-06	1.74e-06	2.45e-06	3.49e-06	4.82e-06	6.74e-06	8.99e-06
